Experimental data reported in patent publication US6737383B1, “Herbicidal oxadiazolidines” (priority 1999, dated 2004).

How the values were obtained:
winter wheat [1] = assay: Test E winter wheat; format: in vivo, Triticum aestivum; settings: Postemergence
Outline: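 Greenhouse test: for postemergence, foliar application at 1- to 4-leaf stage; compound in non-phytotoxic solvent with surfactant. Rating is visual, relative to untreated controls, about 21 to 28 days after treatment.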

blackgrass = assay: Test E blackgrass; format: in vivo, Alopecurus myosuroides; settings: Preemergence
itchgrass = assay: Test D itchgrass; format: in vivo, Rottboellia exaltata; settings: Preemergence, 0 to 100 scale
Outline: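 Scoring used a 0–100 visual injury scale, with 0 meaning no effect and 100 complete control, assessed 14–21 days after application alongside untreated pots. Preemergence treatments went onto sandy loam surfaces of separately potted seeds within a day of sowing.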

crabgrass = assay: Test B pre/postemergence crabgrass; format: in vivo, Digitaria sanguinalis
Outline: (§1)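 Test chemicals in a non-phytotoxic solvent mixture with surfactant were sprayed preemergence onto planted seeds and postemergence onto plants 2 to 18 cm tall (1- to 4-leaf stage). After twelve to sixteen days in a greenhouse, injury was visually rated against untreated controls from 0 (no effect) to 10 (complete control).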

Italian ryegrass = assay: Test E Italian ryegrass; format: in vivo, Lolium multiflorum; settings: Preemergence
Green foxtail [2] = assay: Test D green foxtail; format: in vivo; settings: Preemergence, 0 to 100 scale
Outline: (§2)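 Each weed species is planted in its own pot or compartment; preemergence doses go on the sandy loam surface within a day. The formulation is a surfactant-containing, non-phytotoxic solvent blend. Ratings come from visual comparison with untreated controls 14 to 21 days later, where 100 means complete control.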

green foxtail [3] = assay: Test E green foxtail; format: in vivo, Setaria viridis; settings: Preemergence
dallisgrass = assay: Test D dallisgrass; format: in vivo, Paspalum dilatatum; settings: Preemergence, 0 to 100 scale
Outline: as §2

purple nutsedge = assay: Test B pre/postemergence purple nutsedge; format: in vivo, Cyperus rotundus
Outline: as §1

winter wheat [4] = assay: Test E winter wheat; format: in vivo, Triticum aestivum; settings: Preemergence
winter barley = assay: Test E winter barley; format: in vivo, Hordeum vulgare; settings: Preemergence
Green foxtail [5] = assay: Test D green foxtail; format: in vivo
Outline: as §2

duck salad = assay: Test B flood test duck salad; format: in vivo, Heteranthera limosa
Outline: (§3)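 Read-out is a visual response score from 0 (no effect) to 10 (complete control), assigned by comparison with untreated controls. Treatment was applied at the 2-leaf stage, and plants stayed in the greenhouse for twelve to sixteen days before scoring.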

wild oat = assay: Test E wild oat; format: in vivo, Avena fatua; settings: Preemergence, 0 to 100 scale where 0 is no effect and 100 is complete control
bamyardgrass = assay: Test B flood test barnyardgrass; format: in vivo, Echinochloa crus-galli
Outline: as §3

[6] = Rate 500 g/ha, 0 to 100 scale where 0 is no effect and 100 is complete control
[7] = Rate 1000 g/ha, 0 to 100 scale where 0 is no effect and 100 is complete control
[8] = Rate 16 g/ha, 0 no injury, 100 complete control
[9] = Rate 32 g/ha, 0 no injury, 100 complete control
[10] = Rate 64 g/ha, 0 no injury, 100 complete control
[11] = Rate 125 g/ha, 0 no injury, 100 complete control
[12] = Postemergence, Rate 125 g/ha, scale of 0 to 10 where 0 is no effect and 10 is complete control
[13] = Postemergence, Rate 250 g/ha, scale 0 to 10, 0 no effect, 10 complete control
[14] = Preemergence, Rate 62 g/ha, scale 0 to 10 (0 no effect, 10 complete control)
[15] = Preemergence, Rate 125 g/ha, scale 0 to 10 (0 no effect, 10 complete control)
[16] = Preemergence, Rate 250 g/ha, scale of 0 to 10 where 0 is no effect and 10 is complete control
[17] = Rate 62 g/ha, Postemergence, scale of 0 to 10 where 0 is no effect and 10 is complete control
[18] = Rate 500 g/ha, Postemergence, scale 0 to 10, 0 no effect, 10 complete control
[19] = Rate 64 g/ha, Preemergence; 0 to 100 scale, 0 no injury, 100 complete control
[20] = Rate 125 g/ha, Preemergence; 0 to 100 scale, 0 no injury, 100 complete control
[21] = Rate 250 g/ha, headed Pre-emergence (flood test species), scale 0 to 10 (0 no effect, 10 complete control)
[22] = Rate 500 g/ha, headed Pre-emergence (flood test species), scale 0 to 10 (0 no effect, 10 complete control)
[23] = Rate 1000 g/ha, Pre-emergence (as headed), scale 0 to 10

## CC(C)N(C(=O)n1oc(=O)n(Cc2cccs2)c1=O)c1ccccc1 [Compound 103]
Winter wheat [1]; Rate 250 g/ha, 0 to 100 scale (0 no effect, 100 complete control)
  Plant response rating, Wheat (winter): 0
Winter wheat [1]; Rate 1000 g/ha, 0 to 100 scale, 0 is no effect and 100 is complete control
  Plant response rating, Wheat (winter): 10
Winter wheat [1]; Rate 500 g/ha, 0 to 100 scale, 0 no effect, 100 complete control
  Plant response rating, Wheat (winter): 0
blackgrass; Rate 250 g/ha, 0 to 100 scale
  Plant response rating, Blackgrass: 30
blackgrass; [6]
  Plant response rating, Blackgrass: 50
blackgrass; [7]
  Plant response rating, Blackgrass: 70
itchgrass; [8]
  Plant response rating, Itchgrass: 0
itchgrass; [9]
  Plant response rating, Itchgrass: 0
itchgrass; [10]
  Plant response rating, Itchgrass: 0
itchgrass; [11]
  Plant response rating, Itchgrass: 0
itchgrass; Rate 250 g/ha
  Plant response rating, Itchgrass: 0
itchgrass; Rate 500 g/ha
  Plant response rating, Itchgrass: 0
crabgrass; [12]
  Crabgrass plant response rating: 4
crabgrass; [13]
  Crabgrass plant response rating: 6
crabgrass; [14]
  Crabgrass plant response rating: 2
crabgrass; [15]
  Plant response rating, Crabgrass: 6
crabgrass; [16]
  Plant response rating, Crabgrass: 9
crabgrass; [17]
  Crabgrass plant response rating: 0
crabgrass; [18]
  Crabgrass plant response rating: 9
Italian ryegrass; Rate 250 g/ha, 0 to 100 scale
  Plant response rating, I. Ryegrass: 50
Italian ryegrass; [6]
  Plant response rating, I. Ryegrass: 50
Italian ryegrass; [7]
  Plant response rating, I. Ryegrass: 70
Green foxtail [2]; Rate 250 g/ha
  Plant response rating, Green foxtail: 100
Green foxtail [2]; Rate 500 g/ha
  Plant response rating, Green foxtail: 100
Green foxtail [3]; Rate 250 g/ha, 0 to 100 scale
  Plant response rating, Green foxtail: 70
Green foxtail [3]; [6]
  Plant response rating, Green foxtail: 70
Green foxtail [3]; [7]
  Plant response rating, Green foxtail: 100
dallisgrass; [8]
  Plant response rating, Dallisgrass: 10
dallisgrass; [9]
  Plant response rating, Dallisgrass: 20
dallisgrass; [10]
  Plant response rating, Dallisgrass: 45
dallisgrass; [11]
  Plant response rating, Dallisgrass: 65
dallisgrass; Rate 250 g/ha
  Plant response rating, Dallisgrass: 98
dallisgrass; Rate 500 g/ha
  Plant response rating, Dallisgrass: 100
Purple nutsedge; [12]
  Nutsedge plant response rating: 0
Purple nutsedge; [13]
  Nutsedge plant response rating: 0
Purple nutsedge; [14]
  Nutsedge plant response rating: 0
Purple nutsedge; [15]
  Plant response rating, Nutsedge: 0
Purple nutsedge; [16]
  Plant response rating, Nutsedge: 0
Purple nutsedge; Preemergence, Rate 500 g/ha, scale 0 to 10 (0 no effect, 10 complete control)
  Nutsedge plant response rating: 0
Purple nutsedge; [17]
  Nutsedge plant response rating: 0
Purple nutsedge; [18]
  Nutsedge plant response rating: 0
Winter wheat [4]; Rate 250 g/ha, 0 to 100 scale
  Plant response rating, Wheat (winter): 20
Winter wheat [4]; [6]
  Plant response rating, Wheat (winter): 30
Winter wheat [4]; [7]
  Plant response rating, Wheat (winter): 30
Winter barley; Rate 250 g/ha, 0 to 100 scale
  Plant response rating, Barley (winter): 30
Winter barley; [6]
  Plant response rating, Barley (winter): 40
Winter barley; [7]
  Plant response rating, Barley (winter): 50
Green foxtail [5]; Preemergence; Rate 16 g/ha; 0 to 100 scale, 0 no injury, 100 complete control
  Plant response rating, Green foxtail: 0
Green foxtail [5]; Preemergence; Rate 32 g/ha; 0 to 100 scale, 0 no injury, 100 complete control
  Plant response rating, Green foxtail: 0
Green foxtail [5]; Rate 16 g/ha; Preemergence; 0 to 100 scale, 0 no injury, 100 complete control
  Plant response rating, Green foxtail: 0
Green foxtail [5]; Rate 32 g/ha; Preemergence; 0 to 100 scale, 0 no injury, 100 complete control
  Plant response rating, Green foxtail: 85
Green foxtail [5]; [19]
  Green foxtail plant response rating: 50
  Plant response rating, Green foxtail: 50
Green foxtail [5]; [20]
  Green foxtail plant response rating: 100
  Plant response rating, Green foxtail: 100
Green foxtail [5]; Rate 250 g/ha; Preemergence; 0 to 100 scale
  Plant response rating, Green foxtail: 100
Green foxtail [5]; Rate 500 g/ha, Preemergence; 0 to 100 scale
  Plant response rating, Green foxtail: 100
Duck salad; [21]
  Ducksalad plant response rating: 0
Duck salad; [22]
  Plant response rating, Ducksalad: 0
Duck salad; [23]
  Ducksalad plant response rating: 0
Duck salad; Rate 2000 g/ha, Pre-emergence (as headed), scale 0 to 10
  Ducksalad plant response rating: 0
Wild oat; Rate 500 g/ha
  Plant response rating, Wild oat: 50
Wild oat; Rate 1000 g/ha
  Plant response rating, Wild oat: 70
bamyardgrass; [21]
  Barnyardgrass plant response rating: 0
bamyardgrass; [22]
  Plant response rating, Barnyardgrass: 0
bamyardgrass; [23]
  Barnyardgrass plant response rating: 0
bamyardgrass; Rate 2000 g/ha, Pre-emergence (as headed), scale 0 to 10, 0 no effect, 10 complete control
  Barnyardgrass plant response rating: 0
